What all share (format): cell-based
One test relates to AsPC-1 cells. As to the kind of experiment: 3D cell proliferation assay (CellTiter Glo-3D) in AsPC-1 cells. The conditions noted are these: ASPC1, 120 h; AsPC-1, human pancreatic cancer cell strain, KRAS G12D mutation; 3D culture, 2% FBS, 5 days; read-out: AsPC-1 AP IC50. The text has this:
MIA PaCa-2 cells were purchased from ATCC, Cat. No. CRL-1420; AsPC-1 cells were purchased from ATCC, Cat. No. CRL-1682; NCI-H441 cells were purchased from ATCC, Cat. No. HTB-174; NCI-H1975 cells were purchased from ATCC, Cat. No. CRL-5908; DMEM medium was purchased from Gibco, Cat. No. 11995-065; RPMI-1640 medium was purchased from Gibco, Cat. No. 11875-093; FBS was purchased from Gibco, Cat. No. 10099-141C; penicillin/streptomycin double-antibiotic solution (PS) was purchased from Gibco, Cat. No. 15140-122; Horse serum was purchased from Gibco, Cat. No. 16050130; trypsin (containing EDTA) was purchased from Gibco, Cat. No. 25200-072; DMSO was purchased from VWRAMRESCO, Cat. No. 0231-500ML; 384-well cell culture plates were purchased from Corning, Cat. No. 3830; white-bottomed, opaque 384-well assay plates were purchased from Corning, Cat. No. 3570; CellTiter Glo-3D kit was purchased from Promega, Cat. No. G9683; cell counter was purchased from CHEMOMETEC, model: NC-200; microplate reader was purchased from PerkinElmer, model: EnVision.
MIA PaCa-2, a human pancreatic cancer cell strain endogenously containing a KRAS^G12Cmutation, was cultured in a complete medium containing DMEM + 10% FBS + 2.5% Horse serum + 1% PS. AsPC-1, a human pancreatic cancer cell strain endogenously containing a KRAS^G12D mutation, was cultured in a complete medium containing RPMI-1640 + 10% FBS + 1% PS. NCI-H441 cells, a human lung cancer cell strain endogenously containing a KRAS^G12V mutation, were cultured in a complete medium containing RPMI-1640 + 10% FBS + 1% PS. NCI-H1975, a KRAS wild-type human lung cancer cell strain whose cell proliferation […], was cultured in a complete medium containing RPMI-1640 + 10% FBS + 1% PS.
The cells were digested with trypsin (containing EDTA), collected in their respective low-serum complete media containing 2% FBS (for MIA Paca-2 cell culture: DMEM + 2% FBS + 0.5% Horse serum + 1% PS), and counted. After the cell density was adjusted as required, MIA PaCa-2 cells (200 cells/well), AsPC-1 cells (800 cells/well), NCI-H441 cells (800 cells/well), or NCI-H1975 cells (400 cells/well) were seeded into a 384-well cell culture plate, with the volume of the medium in each well being 45 µL. The cell culture plate was incubated in an incubator at 37 °C with 5% CO2 overnight. A series of 3.16-fold gradient dilutions of a 1000× compound stock solution were prepared with DMSO, and then diluted 100-fold with the complete medium containing 2% FBS described above to give 10× compound stock solutions. On the day after cell seeding, 5 µL of the 10× compound stock solution was added to each cell culture well. As a result, the final concentration of the compound in the cell culture well became 1×, and the DMSO content in the well was 0.1%. In addition to the compound-treated wells described above, cell-containing DMSO control wells (with 5 µL of the complete medium containing 1% DMSO added to each well) and cell-free medium control wells (containing 50 µL of the complete medium with 2% FBS) were also set. The culture plate was incubated in an incubator at 37 °C with 5% CO2 for another 5 days, and then 30 µL of CellTiter-Glo working solution was added to each well. The mixture was well mixed, incubated for 30 min, left to stand at room temperature for 30 min, and then transferred to a white-bottomed, opaque 384-well assay plate at 40 µL/well. The chemiluminescence values (RLU) were measured using a microplate reader, and the cell proliferation inhibition rate for each well was calculated: IR(%) = (RLUDMSO - RLUcompound)/(RLUDMSO - RLUblank) × 100%, where RLUDMSO is the average RLU signal value from the DMSO control well samples, RLUblank is the average RLU signal value from the medium control well samples, and RLUcompound is the RLU signal value from the compound-treated well samples. […]

The subject of test [1] is p-ERK. Description: Cell p-ERK assay (HTRF, Advance ERK phospho-T202/Y204 kit) in NCI-H441 cells. The conditions noted are these: Homo sapiens, NCI-H441, 3 h, NCI-H441, human non-small cell lung cancer cell strain, KRAS G12V mutation; 3 h compound incubation. The gist of the method: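 Cells with endogenous KRAS mutations, AsPC-1 (G12D) and NCI-H441 (G12V), were plated overnight and then exposed to compound for 3 h at 37 °C (final 0.1% DMSO, 10% FBS medium). ERK T202/Y204 phosphorylation in lysates was read by HTRF, and IC50 was derived from four-parameter curves of inhibition relative to DMSO and blank controls.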

Another test deals with NCI-H441 cells. Description: 3D cell proliferation assay (CellTiter Glo-3D) in NCI-H441 cells. The settings on record: Homo sapiens, NCI-H441, 120 h, NCI-H441, human lung cancer cell strain, KRAS G12V mutation; 3D culture, 2% FBS, 5 days; read-out: H441 AP IC50. The procedure, abridged: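 After a 5-day exposure at 37 °C to 3.16-fold serial dilutions (final DMSO 0.1%) in 2% FBS RPMI-1640, ATP luminescence (CellTiter-Glo 3D) was read. Cells were AsPC-1 (KRAS G12D) or NCI-H441 (KRAS G12V), 800 per well; inhibition used DMSO and medium-only controls, with four-parameter curve fitting giving IC50.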
(In general: Cellular ATP, detected with luciferase, serves as a proxy for viable cell number.)

Test [2] deals with p-ERK. As to the kind of experiment: Cell p-ERK assay (HTRF, Advance ERK phospho-T202/Y204 kit) in AsPC-1 cells. The settings on record: ASPC1; AsPC-1, human pancreatic cancer cell strain, KRAS G12D mutation; 3 h compound incubation. How it is done:
AsPC-1 cells were purchased from ATCC, Cat. No. CRL-1682; NCI-H441 cells were purchased from ATCC, Cat. No. HTB-174; RPMI-1640 medium was purchased from Gibco, Cat. No. 11875-093; FBS was purchased from Gibco, Cat. No. 10099-141C; penicillin/streptomycin double-antibiotic solution (PS) was purchased from Gibco, Cat. No. 15140-122; trypsin (containing EDTA) was purchased from Gibco, Cat. No. 25200-072; DMSO was purchased from VWRAMRESCO, Cat. No. 0231-500ML; 96-well cell culture plates were purchased from Corning, Cat. No. 3599; white-bottomed, opaque 96-well plates were purchased from Cisbio, Cat. No. 66PL96025; Advance ERK phospho-T202/Y204 kit was purchased from Cisbio, Cat. No. 64AERPEH; cell counter was purchased from CHEMOMETEC, model: NC-200; microplate reader was purchased from PerkinElmer, model: EnVision.
AsPC-1, a human pancreatic cancer cell strain endogenously containing a KRAS^G12D mutation, was cultured in a complete medium containing RPMI-1640 + 10% FBS + 1% PS. NCI-H441, a human non-small cell lung cancer cell strain endogenously containing a KRAS^G12V mutation, was cultured in a complete medium containing RPMI-1640 + 10% FBS + 1% PS.
The cells were digested with trypsin (containing EDTA), collected in their corresponding complete media, and counted. The density of the cell suspensions was adjusted with their corresponding complete media, and AsPC-1 cells (10000 cells/well) or NCI-H441 cells (20000 cells/well) were seeded into a 96-well cell culture plate, with the volume of the medium in each well being 80 µL. The cell culture plate was incubated in an incubator at 37 °C with 5% CO2 overnight. A series of 3.16-fold gradient dilutions of a 1000× compound stock solution were prepared with DMSO, and then diluted 200-fold with the complete medium described above to give 5× compound stock solutions. On the day after cell seeding, 20 µL of the 5× compound stock solution was added to each cell culture well. As a result, the final concentration of the compound in the cell culture well became 1×, and the DMSO content in the well was 0.1%. In addition to the compound-treated wells described above, cell-containing DMSO control wells were also set. A complete medium containing 0.5% DMSO was added at 20 µL/well. After the mixture was well mixed, the culture plate was incubated in the incubator at 37 °C with 5% CO2 for another 3 h. The medium was then removed from the culture wells, and 50 µL of cell lysis buffer (from Advance ERK phospho-T202/Y204 kit) was added to each well. The mixture was well mixed, incubated for 30 min, and then transferred to a white-bottomed, opaque 96-well assay plate at 16 µL/well, and separately, 16 µL of cell lysis buffer was added to additional wells (serving as blank wells) in the assay plate. After the transfer was completed, 4 µL of p-ERK HTRF antibody mixture (from Advance ERK phospho-T202/Y204 kit) was added to each well of the assay plate, followed by a 4-hour incubation. The HTRF signal values (RLU) were then measured using a microplate reader, and the inhibition rate of the compound against p-ERK levels was calculated as follows: IR(%) = (RLUDMSO - RLUcompound)/(RLUDMSO - RLUblank) × 100%, where RLUDMSO is the average HTRF signal value from the DMSO control well samples, RLU is the average HTRF signal value from the blank well samples, and RLUcompound is the HTRF signal value from the compound-treated well samples. Using an XLfit software, the IR(%) values were plotted against the logarithm of the compound concentrations, and the dose-response curves were fitted using the four-parameter method to calculate the IC50 values.

Usually IC50 stands for the concentration at which inhibition is half-maximal.

On to `CCn1cc2c(c1-c1cc(C#CCN3CCC(C#N)CC3)cnc1[C@H](C)OC)CC(C)(C)COC(=O)[C@@H]1CCCN(N1)C(=O)[C@@H](NC(=O)[C@H]1[C@H](C)[C@@H]1C)Cc1nc(cs1)/C=C/2` (atropisomer, axis not shown; (Ra)) [Compound Z49, (1r,2R,3S)-N-((4 ^2Z,8^3S,2E,6S)-(Ra)-1^5-(5-(3-(4-cyanopiperidin-1-yl)prop-1-yn-1-yl)-2-((S)-1-methoxyethyl)pyridin-3-yl)-1^1-ethyl-12,12-dimethyl-7,9-dioxo-8^1,8^2,8^3,8^4,8^5,8^6-hexahydro-1^1H-10-oxa-4(4,2)-thiazola-8(1,3)-pyridazina-1(3,4)-pyrrolacyclotridecaphan-2-en-6-yl)-2,3-dimethylcyclopropane-1-carboxamide], for which the IC50 in the test with AsPC-1 cells amounted to 80 pM; with p-ERK [1] it was 170 pM; with NCI-H441 cells, 140 pM; with p-ERK [2] it was 130 pM.
The matching figures for `CCn1cc2c(c1-c1cc(C#CCN3CCC(C#N)CC3)cnc1[C@H](C)OC)CC(C)(C)COC(=O)[C@@H]1CCCN(N1)C(=O)[C@@H](NC(=O)[C@H]1[C@@H]3COC[C@@H]31)Cc1nc(cs1)/C=C/2` (atropisomer, axis not shown; (Ra)) [Compound Z50, (1R,5S,6r)-N-((4^2Z,8^3S,2E,6S)-(Ra)-1^5-(5-(3-(4-cyanopiperidin-1-yl)prop-1-yn-1-yl)-2-((S)-1-methoxyethyl)pyridin-3-yl)-1^1-ethyl-12,12-dimethyl-7,9-dioxo-8^1,8^2,8^3,8^4,8^5,8^6-hexahydro-1^1H-10-oxa-4(4,2)-thiazola-8(1,3)-pyridazina-1(3,4)-pyrrolacyclotridecaphan-2-en-6-yl)-3-oxabicyclo[3.1.0]hexane-6-carboxamide]: 190 pM, 290 pM, 140 pM and 110 pM.
For `CO[C@@H](C)c1ncc(C#CCN2CCC(C#N)(CN)CC2)cc1-c1c2c(nn1C(C)C)/C=C/c1csc(n1)C[C@H](NC(=O)[C@H]1[C@H](C)[C@@H]1C)C(=O)N1CCC[C@H](N1)C(=O)OCC(C)(C)C2` (atropisomer, axis not shown; (Ra)) [Compound Z62], in that order: 5120 pM, 3500 pM, 4560 pM and 4900 pM.
For `CCn1cc2c(c1-c1cc(C#CCN3CCC(C#N)(CN)CC3)cnc1[C@H](C)OC)CC(C)(C)COC(=O)[C@@H]1CCCN(N1)C(=O)[C@@H](NC(=O)[C@H]1[C@H](C)[C@@H]1C)Cc1nc(cs1)/C=C/2` (atropisomer, axis not shown; (Ra)) [Compound Z65], the IC50 in the test on AsPC-1 cells turned out to be 100 pM; in the test with p-ERK [1] it was 580 pM; with NCI-H441 cells, 170 pM; with p-ERK [2], 140 pM.
With `CCn1cc2c(c1-c1cc(C#CCN3CCC(C#N)(CN)CC3)cnc1[C@H](C)OC)CC(C)(C)COC(=O)[C@@H]1CCCN(N1)C(=O)[C@@H](NC(=O)[C@H]1[C@@H]3COC[C@@H]31)Cc1nc(cs1)/C=C/2` (atropisomer, axis not shown; (Ra)) [Compound Z66], the IC50 with AsPC-1 cells stood at 240 pM; in the test on p-ERK [1] it was 380 pM; in the test with NCI-H441 cells, 180 pM; with p-ERK [2] it was 160 pM.

Values taken from EP4772514A1, “MACROCYCLIC COMPOUNDS, PREPARATION METHOD THEREFOR, AND USE THEREOF” (Genfleet Therapeutics (Shanghai) Inc., priority 2023, dated 2025).
